Results: patent US7960389B2, “4(phenyl-piperazinyl-methyl) benzamide derivatives and their use for the treatment of pain or gastrointestinal disorders” (priority 2002, dated 2011)
Where two headings read alike, the source gives them in different places.

What was measured:
[1] = molecular target: T1, human δ receptors (Homo sapiens, UniProt P41143); experiment: Human δ receptor functional assay (GTP[γ]35S binding, HEK-293S cell membranes); type: biochemical; details: for Emax: relative to standard δ agonist SNC80, receptors expressed at higher levels, read-out: Human δ % EMax (high)
T1 construct: expressed in transfected cells; host or cells: human 293S (HEK-293S) cells
T1 sequence (P41143 whole entry): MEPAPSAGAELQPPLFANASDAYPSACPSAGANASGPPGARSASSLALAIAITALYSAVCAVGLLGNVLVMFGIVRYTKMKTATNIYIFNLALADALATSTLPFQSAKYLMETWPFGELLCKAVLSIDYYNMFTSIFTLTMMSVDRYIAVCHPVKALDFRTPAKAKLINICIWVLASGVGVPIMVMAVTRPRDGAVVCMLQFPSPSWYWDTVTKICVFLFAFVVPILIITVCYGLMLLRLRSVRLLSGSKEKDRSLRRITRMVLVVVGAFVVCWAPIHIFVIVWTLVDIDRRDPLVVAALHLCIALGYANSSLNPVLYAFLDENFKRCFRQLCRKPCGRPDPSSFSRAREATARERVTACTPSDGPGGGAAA
Description: (§1) • A. Human 293S cells expressing cloned human κ, δ and μ receptors and neomycin resistance are grown in suspension at 37° C. and 5% CO2 in shaker flasks containing calcium-free DMEM10% FBS, 5% BCS, 0.1% Pluronic F-68, and 600 μg/ml geneticin. • B. Rat brains are weighed and rinsed in ice-cold PBS (containing 2.5 mM EDTA, pH 7.4). The brains are homogenized with a polytron for 30 sec (rat) in ice-cold lysis buffer (50 mM Tris, pH 7.0, 2.5 mM EDTA, with phenylmethylsulfonyl fluoride added just prior use to […] from a 0.5M stock in DMSO:ethanol). Membrane Preparation
Cells are pelleted and resuspended in lysis buffer (50 mM Tris, pH 7.0, 2.5 mM EDTA, with PMSF added just prior to use to 0.1 mM from a 0.1 M stock in ethanol), incubated on ice for 15 min, then homogenized with a polytron for 30 sec. The suspension is spun at 1000 g (max) for 10 min at 4° C. The supernatant is saved on ice and the pellets resuspended and spun as before. The supernatants from both spins are combined and spun at 46,000 g(max) for 30 min. The pellets are resuspended in cold Tris buffer (50 mM Tris/Cl, pH 7.0) and spun again. The final pellets are resuspended in membrane buffer (50 mM Tris, 0.32 M sucrose, pH 7.0). Aliquots (1 ml) in polypropylene tubes are frozen in dry ice/ethanol and stored at −70° C. until use. The protein concentrations are determined by a modified Lowry assay with sodium dodecyl sulfate.
(§2) The agonist activity of the compounds is measured by determining the degree to which the compounds receptor complex activates the binding of GTP to G-proteins to which the receptors are coupled. In the GTP binding assay, GTP[γ]^35S is combined with test compounds and membranes from HEK-293S cells expressing the cloned human opioid receptors or from homogenised rat and mouse brain. Agonists stimulate GTP[γ]^35S binding in these membranes. The EC50 and Emax values of compounds are determined from dose-response curves. Right shifts of the dose response curve by the delta antagonist naltrindole are performed to verify that agonist activity is mediated through delta receptors. For human δ receptor functional assays, EC50 (low) is measured when the human δ receptors used in the assay were expressed at lower levels in comparison with those used in determining EC50 (high). The Emax values were determined in relation to the standard δ agonist SNC80, i.e., higher than 100% is a compound that have better efficacy than SNC80.

[2] = molecular target: T2, δ receptors in rat brain membranes (Rattus norvegicus, UniProt P33533); experiment: Rat brain functional assay (GTPγ35S binding, rat brain membranes); type: biochemical; details: Table 1, relative to SNC80
T2 construct: Rat brain membranes are thawed at 37° C; from tissue; host or cells: rat brain homogenate membranes
T2 sequence (P33533 whole entry): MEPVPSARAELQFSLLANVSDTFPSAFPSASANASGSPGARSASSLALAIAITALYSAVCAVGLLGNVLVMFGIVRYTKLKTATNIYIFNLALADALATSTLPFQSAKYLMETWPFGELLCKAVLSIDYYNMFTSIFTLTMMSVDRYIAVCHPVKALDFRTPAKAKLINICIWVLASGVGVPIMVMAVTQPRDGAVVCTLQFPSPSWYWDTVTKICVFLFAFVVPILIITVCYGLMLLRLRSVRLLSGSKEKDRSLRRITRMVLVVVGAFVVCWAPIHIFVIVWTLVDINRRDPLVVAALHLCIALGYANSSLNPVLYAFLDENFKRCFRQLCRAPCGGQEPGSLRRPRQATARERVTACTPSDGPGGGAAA
Description: as §1, §2
Rat brain membranes are thawed at 37° C., passed 3 times through a 25-gauge blunt-end needle and diluted in the GTPγS binding (50 mM Hepes, 20 mM NaOH, 100 mM NaCl, 1 mM EDTA, 5 mM MgCl2, pH 7.4, Add fresh: 1 mM DTT, 0.1% BSA). 120 μM GDP final is added membranes dilutions. […] The basal and maximal stimulated binding are determined in absence and presence of 3 μM SNC-80

[3] = molecular target: T1, human δ receptors; experiment: Binding assay, membranes of human 293S cells expressing cloned human δ receptors
[4] = molecular target: T3, human κ receptors (Homo sapiens, UniProt P41145); experiment: Binding assay, membranes of human 293S cells expressing cloned human κ receptors
T3 construct: expressed in transfected cells; host or cells: human 293S cells
T3 sequence (P41145 whole entry): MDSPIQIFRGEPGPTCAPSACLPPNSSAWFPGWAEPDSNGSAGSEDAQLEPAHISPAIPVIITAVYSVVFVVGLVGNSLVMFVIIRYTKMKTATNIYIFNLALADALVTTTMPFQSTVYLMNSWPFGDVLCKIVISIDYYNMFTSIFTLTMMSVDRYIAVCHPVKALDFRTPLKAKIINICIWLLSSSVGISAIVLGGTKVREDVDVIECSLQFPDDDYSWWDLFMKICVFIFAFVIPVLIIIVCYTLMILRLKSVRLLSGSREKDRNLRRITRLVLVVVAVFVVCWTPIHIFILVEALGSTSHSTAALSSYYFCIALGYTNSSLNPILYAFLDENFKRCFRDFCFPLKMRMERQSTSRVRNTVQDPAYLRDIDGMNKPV

SMILES	EC50 [1] [nM]	Emax ([1]; Table 1) [%]	Emax [2] [%]	IC50 [3] [nM]	IC50 [4] [nM]	EC50 ([1]; Table 1, human δ receptors expressed at higher levels, read-out: Human δ EC50 (high)) [nM]	IC50 ([3]; Table 1, displacement of radioactive δ receptor ligand, read-out: Human δ IC50) [nM]
CCN(CC)C(=O)c1ccc([C@H](c2cccc(NC(=O)OC)c2)N2CCN(Cc3ccco3)CC2)cc1 [Compound 8, R-Methyl 3-{{4-[(diethylamino)carbonyl]phenyl}[4-(2-furylmethyl)piperazin-1-yl]methyl}phenylcarbamate]	0.55 to 1.93	89 to 102	135 to 170	0.25 to 0.74			
CCN(CC)C(=O)c1ccc([C@@H](c2cccc(NC(=O)OC)c2)N2CCN(Cc3ccccc3)CC2)cc1 [Compound 2, S-Methyl 3-[(4-[(diethylamino)carbonyl]phenyl)(4-benzyl-piperazin-1-yl)methyl]phenylcarbamate]	0.55 to 1.93	89 to 102	135 to 170	0.25 to 0.74			
CCN(CC)C(=O)c1ccc([C@H](c2cccc(NC(=O)OC)c2)N2CCN(Cc3cccs3)CC2)cc1 [Compound 4, R-Methyl 3-{{4-[(diethylamino)carbonyl]phenyl}[4-(thien-2-ylmethyl)piperazin-1-yl]methyl}phenylcarbamate]	0.55 to 1.93	89 to 102	135 to 170	0.25 to 0.74			
CCN(CC)C(=O)c1ccc([C@@H](c2cccc(NC(=O)OC)c2)N2CCN(Cc3cccs3)CC2)cc1 [Compound 3, S-Methyl 3-{{4-[(diethylamino)carbonyl]phenyl}[4-(thien-2-ylmethyl)piperazin-1-yl]methyl}phenylcarbamate]	0.55 to 1.93	89 to 102	135 to 170	0.25 to 0.74			
CCN(CC)C(=O)c1ccc([C@@H](c2cccc(NC(=O)OC)c2)N2CCN(Cc3ccoc3)CC2)cc1 [Compound 9]	0.55 to 1.93	89 to 102	135 to 170	0.25 to 0.74			
CCN(CC)C(=O)c1ccc([C@@H](c2cccc(NC(=O)OC)c2)N2CCN(Cc3ccsc3)CC2)cc1 [Compound 5, S-Methyl 3-{{4-[(diethylamino)carbonyl]phenyl}[4-(thien-3-ylmethyl)piperazin-1-yl]methyl}phenylcarbamate]	0.55 to 1.93	89 to 102	135 to 170	0.25 to 0.74			
CCN(CC)C(=O)c1ccc([C@@H](c2cccc(NC(=O)OC)c2)N2CCN(Cc3ccco3)CC2)cc1 [Compound 7, S-Methyl 3-{{4-[(diethylamino)carbonyl]phenyl}[4-(2-furylmethyl)piperazin-1-yl]methyl}phenylcarbamate]	0.55 to 1.93	89 to 102	135 to 170	0.25 to 0.74			
CCN(CC)C(=O)c1ccc([C@H](c2cccc(NC(=O)OC)c2)N2CCN(Cc3ccccc3)CC2)cc1 [Compound 1, R-Methyl 3-[(4-[(diethylamino)carbonyl]phenyl)(4-benzyl-piperazin-1-yl)methyl]phenylcarbamate]	0.55 to 1.93	89 to 102	135 to 170	0.25 to 0.74			
CCN(CC)C(=O)c1ccc([C@H](c2cccc(NC(=O)OC)c2)N2CCN(Cc3ncc[nH]3)CC2)cc1 [Compound 11, R-Methyl 3-{{4-[(diethylamino)carbonyl]phenyl}[4-(1H-imidazol-2-ylmethyl)piperazin-1-yl]methyl}phenylcarbamate]		89 to 102	135 to 170		247 to 1640	0.55 to 1.93	0.25 to 0.74
CCN(CC)C(=O)c1ccc([C@H](c2cccc(NC(=O)OC)c2)N2CCN(Cc3ccoc3)CC2)cc1 [Compound 10, R-Methyl 3-{{4-[(diethylamino)carbonyl]phenyl}[4-(3-furylmethyl)piperazin-1-yl]methyl}phenylcarbamate]	0.55 to 1.93	89 to 102	135 to 170	0.25 to 0.74			
CCN(CC)C(=O)c1ccc([C@H](c2cccc(NC(=O)OC)c2)N2CCN(Cc3ccsc3)CC2)cc1 [Compound 6, R-Methyl 3-{{4-[(diethylamino)carbonyl]phenyl}[4-(thien-3-ylmethyl)piperazin-1-yl]methyl}phenylcarbamate]	0.55 to 1.93	89 to 102	135 to 170	0.25 to 0.74			
